Assays:
[1] = Filter experiments for deposited lung dose in the PAH minipig model and prediction of human dose; assay type: in vivo
Protocol: The anesthetized thromboxane A2 challenged PAH-minipig model (see experimental part E-1) is considered to be the most relevant and sensitive model for the prediction of the human minimal effective and effective doses (MED, ED). To determine effective LDs, experiments were repeated with the difference that absorbing filters were attached at the end of the tubes to determine the deposited lung dose. […] Assuming a minimal effective ND of 3 μg/kg (5% reduction in PAP) the minimal effective deposited LD is considered as 0.15 μg/kg.
The nominal doses of 3, 10, 30 and 100 μg/kg of the minipig model were multiplied by the filter deposition factor of 5% resulting in 0.15, 0.5, 1.5 and 5 μg/kg lung deposited doses in the minipig. These values were multiplied by 60 kg to achieve the lung dose in humans. Thus, the FPD reflecting the PAP reduction for a 60 kg human are calculated to be 9, 30, 90 and 300 μg.
Thus, via a direct up-scaling from minipig, the predictive MED (5% PAP reduction) for a human based on a 60 kg body weight is calculated to be 9 μg LDD, not considering protein binding within the respiratory tract. As a surrogate for unbound concentrations, which are the likely active concentrations in the lung, we considered respective differences in fractions unbound in plasma of minipig and human. […]

[2] = tested on: sGC; experiment: Efficacy under experimental conditions of oxidative stress (ODQ, L-NAME treatment); assay type: in vivo
[3] = Protein binding via Transil assay, human plasma; assay type: in vitro ADME
Protocol: Protein Binding of Comparative Example 11 and Comparative Example 1 was Analyzed Via Transil Assay, Described Below.
The distribution of a test substance between Transil® (phosphatidylcholine lipid bilayers immobilized on silica beads) and plasma is a characteristic feature of any pharmaceutical compound and is dependent on its extent of binding to plasma proteins. By comparing the distribution between Transil® and buffer with the distribution between Transil® and plasma of any species of interest, the unbound fraction in the plasma of the respective animal species can be calculated in vitro. The respective plasma and buffer concentrations were determined via a radioactivity analysis. A detailed description of the method and its validation was published by Schuhmacher et al. (2).

[4] = Storage stability of pseudopolymorphic forms (XRPD); assay type: physicochemical; details: for Result (form after storage): monohydrate II
[5] = E-2.1 plasma concentrations over time after inhalation in healthy male subjects; assay type: in vivo, human; details: all doses administered
Protocol: Healthy White male subjects, aged 18 to 45 years and with a body mass index (BMI) above/equal 18.5 and below/equal 29.9 kg/m2 were treated in a clinical pharmacological phase I study on seven days with inhaled once daily doses of 480 μg or 1000 μg or 2000 μg (2 capsules of 1000 μg) (nominal dose) of dry powder formulations comprising example 2 or Placebo. The subjects inhaled the drug powder from capsules (see under C-1, e.g. tables 22 and 23) inserted into a handheld inhalation device by one deep inhalative breath. The dry powder formulation of the drug is dispersed into the airstream and fine particles are transported into the deep parts of the lung where it is intended to cause a vasodilation of the blood vessels in PH patients for a substantial reduction of increased blood pressure in the central pulmonary blood vessels in PAH patients or other subtypes of PH. This effect cannot be shown in subjects with healthy lungs. In addition inhaled drug causes a dilation of the bronchial airways and thus also improves disease states of lung diseases in PH patients with pathological bronchoconstriction. This effect was measured via bodyplethysmography as reduction of Specific Airway Resistance in healthy subjects. […]

Structure (SMILES): O=C(O)c1ccc(CCN(CCc2ccccc2OCc2ccc(-c3ccc(C(F)(F)F)cc3)cc2Cl)[C@H]2CCCc3nc(C(=O)O)ccc32)cc1 [comparative example 11, (5S)-5-{[2-(4-carboxyphenyl)ethyl][2-(2-{[3-chloro-4′-(trifluoromethyl)[biphenyl]-4-yl]methoxy}phenyl)ethyl]amino}-5,6,7,8-tetrahydroquinoline-2-carboxylic acid]
- minimal effective lung deposited dose for a human patient of 60 kg body weight ([1]; with or without effect of different protein binding): 9 to 41 µg
- efficacy under oxidative stress [2]: enhanced
- free fraction, times lower than comparative example 1 [3]: 2 times

Structure (SMILES): O=C(O)c1ccc(CCN(CCc2ccccc2OCc2ccc(-c3ccc(C(F)(F)F)cc3)cc2Cl)[C@H]2CCCc3nc(C(=O)O)ccc32)cc1 [example 2, (5S)—{[2-(4-Carboxyphenyl)ethyl][2-(2-{[3-chloro-4′-(trifluoromethyl)biphenyl-4-yl]methoxy}phenyl)-ethyl]amino}-5,6,7,8-tetrahydroquinoline-2-carboxylic acid as Monohydrate II]
- Result (form after storage) ([4]; brown glass closed with paper filter disc, 40° C., 75% relative humidity): monohydrate I
- Result (form after storage) ([4]; brown glass snap on closure, 25° C., 60% relative humidity, one, three and six months): monohydrate II
- Result (form after storage) ([4]; polyethylene, 25° C., 60% relative humidity): monohydrate I
- Result (form after storage) ([4]; polyethylene, 40° C., 75% relative humidity): monohydrate I
- ratio of fraction unbound minipig/human ([1]; plasma): 4.55
- persistence of measurable plasma concentration after first inhalation [5]: 48 h
- fraction unbound ([3]; read-out: plasma fu (fraction unbound)): 0.000764

Structure (SMILES): O=C(O)c1ccc(CCN(CCc2ccccc2OCc2ccc(-c3ccc(C(F)(F)F)cc3)cc2Cl)[C@H]2CCCc3nc(C(=O)O)ccc32)cc1 [example 4, (5S)—{[2-(4-Carboxyphenyl)ethyl][2-(2-{[3-chloro-4′-(trifluoromethyl)biphenyl-4-yl]methoxy}phenyl)-ethyl]amino}-5,6,7,8-tetrahydroquinoline-2-carboxylic acid as Monohydrate I]
- storage stability ([4]; under the storage conditions of Table 15): stable

— patent publication US12202805B2, “Process for preparing (5S)-{[2-(4-carboxyphenyl)ethyl] |2-(2-{|3-chloro-4'-(trifluoromethyl)biphenyl-4-yl]methoxy}phenyl)ethyl]aminol-5,6,7,8-tetrahydroquinoline-2-carboxylic acid and its crystalline forms for use as pharmaceutically active compound” (Bayer Aktiengesellschaft, priority 2021, dated 2025)
